Measured values reported in article PMC6395927, “Rufomycin Targets ClpC1 Proteolysis in Mycobacterium tuberculosis and M. abscessus” (Antimicrobial Agents and Chemotherapy, 2019).
Converted amounts (≈) assume the structure as drawn. “Also recorded” adds a separate entry of the source.

Assays:
in vivo = assay: in vivo; parameters: species or system BALB/c mice; details: mice, single i.v. 5 mg/kg
Procedure: Healthy female BALB/c mice were administered a single dose (5 mg/kg) of RUFI intravenously (i.v.; tail vein). RUFI was formulated using 10% ethanol (EtOH), 40% 10% (2-hydroxypropyl)-β-cyclodextrin (HP-β-CD) solution, and 50% PEG 400. RUFI was first dissolved in 0.102 ml of EtOH, vortexed and sonicated until clear, and then diluted with 0.508 ml of PEG 400 with additional vortex treatment and sonication until clear. Finally, 0.406 ml of 10% HP-β-CD was added to the solution. Then 20 μl of this formulation was pipetted into a 10-ml volumetric flask, and methanol (MeOH) was added to a final concentration of 1 mg/ml. The accuracy of the formulation concentration was verified via high-performance liquid chromatography-tandem mass spectrometry (HPLC-MS/MS) (AB Sciex 6500+; SCIEX, Framingham, MA) by electrospray using multiple reaction monitoring (MRM; 1065.63/1047.70) in positive ion mode. LC was performed with a Kinetex EVO C18 column (50 mm by 3.00 mm [inside diameter], 2.6-μm particle size, 100-Å pore size) using a gradient of 0.1% formic acid (FA) in water–0.1% FA in acetonitrile (ACN) (25% ACN to 95% ACN in 1.5 min) at a flow rate of 0.8 ml/min.
Blood samples (10 μl) were collected via saphenous vein puncture at 5, 15, and 30 min and 1, 2, 4, 8, and 25 h. […] A standard curve was determined by using RUFI spiked into untreated mouse plasma.

M. chelonae (ATCC 35752) = assay: microbe, parasite or virus in culture; type: cell-based, Mycobacterium chelonae; details: Mycobacteroides chelonae, ATCC35752; M. chelonae; read-out: MIC
ClpC1/P1/P2 complex = ClpC1/P1/P2 complex (Mycobacterium tuberculosis, UniProt P9WPC9); type: biochemical, M. tuberculosis
ClpC1/P1/P2 complex, sequence (P9WPC9 whole entry, one chain of several): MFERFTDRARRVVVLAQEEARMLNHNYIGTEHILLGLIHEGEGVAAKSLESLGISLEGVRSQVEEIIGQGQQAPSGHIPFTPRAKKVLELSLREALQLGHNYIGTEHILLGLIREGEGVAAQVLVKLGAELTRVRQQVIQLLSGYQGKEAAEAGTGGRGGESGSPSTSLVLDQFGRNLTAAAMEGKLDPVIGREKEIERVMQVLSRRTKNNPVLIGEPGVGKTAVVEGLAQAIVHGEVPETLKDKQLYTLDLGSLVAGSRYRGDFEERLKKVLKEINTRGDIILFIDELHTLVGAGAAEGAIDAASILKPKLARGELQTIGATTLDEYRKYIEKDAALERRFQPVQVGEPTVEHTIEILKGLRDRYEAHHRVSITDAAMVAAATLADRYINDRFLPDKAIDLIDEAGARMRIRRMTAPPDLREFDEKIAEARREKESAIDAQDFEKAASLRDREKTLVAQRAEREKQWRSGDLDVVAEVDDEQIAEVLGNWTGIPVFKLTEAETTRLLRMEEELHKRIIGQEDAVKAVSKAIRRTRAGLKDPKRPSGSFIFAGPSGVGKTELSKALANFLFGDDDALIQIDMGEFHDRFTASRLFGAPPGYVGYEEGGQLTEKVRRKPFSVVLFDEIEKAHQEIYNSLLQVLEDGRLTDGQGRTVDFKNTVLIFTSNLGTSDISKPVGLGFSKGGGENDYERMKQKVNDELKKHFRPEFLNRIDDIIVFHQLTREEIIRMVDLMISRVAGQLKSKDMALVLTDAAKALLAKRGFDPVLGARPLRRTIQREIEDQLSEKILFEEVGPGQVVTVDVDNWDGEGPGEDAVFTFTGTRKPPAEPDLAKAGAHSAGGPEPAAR

[1] = test system: nonreplicating cultures of M. tuberculosis; assay: microbe, parasite or virus in culture; type: cell-based, Mycobacterium tuberculosis
[2] = test system: J774A.1 macrophage (ATCC TIB-67); assay: Cytotoxicity in mammalian cells (resazurin); type: cell-based, murine; details: Mus musculus, J774.A1; J774, 72 h
[3] = test system: M. abscessus in bone marrow-derived macrophages; assay: Intracellular survival assay in BMDMs; type: cell-based, Mycobacterium abscessus; details: 2 days, 5 and 10 μM
Procedure: Bone marrow-derived macrophages (BMDMs) were isolated from the femurs and tibias of C57BL/6 mice (5 to 6 weeks old) and differentiated by culturing for 4 days in DMEM containing 10% (vol/vol) FBS and 25 ng/ml of macrophage colony-stimulating factor (M-CSF; R&D, Minneapolis, MN). The final densities of differentiated BMDMs were 1 × 10^5 to 3 × 10^5 per well in 48-well plates. Cells were infected for 2 h with M. abscessus at a multiplicity of infection (MOI) of 5. Next cells were washed with PBS and incubated in DMEM containing 50 μg/ml of gentamicin (Sigma-Aldrich). RUFI and clarithromycin (CLR) were added to the media to achieve final concentrations of 5 and 10 μM, respectively, and then the cultures were incubated for 2 days. The supernatant was removed, and cells were lysed in sterile distilled water for 30 min at 37°C. Cell lysates were serially diluted, plated on 7H10 agar, and incubated at 37°C for 2 to 3 days for enumeration of CFU.

[4] = test system: M. smegmatis (ATCC 700084); assay: microbe, parasite or virus in culture; type: cell-based; details: Mycolicibacterium smegmatis, ATCC700084; M. smegmatis; read-out: MIC
[5] = test system: MDA-MB-231 breast cancer cells; assay: Cytotoxicity against cancer cell lines (CellTiter 96); type: cell-based; details: Homo sapiens, MDA-MB-231, 72 h
Procedure: (§1) Human melanoma cancer cells (MDA-MB-435), human breast cancer cells (MDA-MB-231), and human ovarian cancer cells (OVCAR3) were purchased from the American Type Culture Collection (Manassas, VA). Each cell line was propagated at 37°C in 5% CO2 in RPMI 1640 medium supplemented with FBS (10%), penicillin (100 U/ml), and streptomycin (100 μg/ml). Cells in log phase were harvested by trypsinization, followed by two washing cycles to remove all traces of enzyme. A total of 5,000 cells were seeded per well of a 96-well clear, flat-bottom plate (Microtest 96; Falcon) and incubated overnight (37°C in 5% CO2). Samples dissolved in DMSO were then diluted and added to the respective wells. The cells were incubated in the presence of test substance for 72 h at 37°C and evaluated for viability with a commercial absorbance assay (CellTiter 96 AQueous One Solution cell proliferation assay; Promega Corp., Madison, WI) that measured viable cells. IC50 values are expressed in micromolar values relative to the solvent (DMSO) control.

[6] = test system: MDA-MB-435 melanoma cells; assay: as above; type: cell-based; details: Homo sapiens, MDA-MB-435, 72 h
Procedure: as §1

[7] = test system: OVCAR 3 ovarian cancer cells; assay: as above; type: cell-based; details: Homo sapiens; OVCAR 3, 72 h
Procedure: as §1

[8] = test system: M. tuberculosis Erdman (ATCC 35801) in J774A.1 macrophages; type: cell-based, Mycobacterium tuberculosis
M. tuberculosis = assay: microbe, parasite or virus in culture; type: cell-based, Mycobacterium tuberculosis
[9] = test system: M. tuberculosis 5 global clade representatives; assay: microbe, parasite or virus in culture; type: cell-based; details: Mycobacterium tuberculosis, read-out: MICs
M. marinum (ATCC 927) = assay: microbe, parasite or virus in culture; type: cell-based; details: Mycobacterium marinum, ATCC927; M. marinum; read-out: MIC
M. abscessus = assay: MBC against M. abscessus; details: Mycobacteroides abscessus
Procedure: Parallel plates were processed as described for M. tuberculosis. The plates were incubated at 37°C for 5 days before CFU determination.

ClpC1 = ClpC1 (Mycobacterium tuberculosis, UniProt P9WPC9); type: biochemical, M. tuberculosis
ClpC1, sequence (P9WPC9 whole entry): as the sequence (P9WPC9 whole entry, one chain of several) above

M. kansasii (ATCC 12478) = assay: microbe, parasite or virus in culture; type: cell-based; details: Mycobacterium kansasii, ATCC12478; M. kansasii; read-out: MIC

SMILES: C/C=C/C[C@@H]1NC(=O)[C@H](CC(C)C)N2C(=O)C(C[C@H](C)[C@H]2O)N(C)C(=O)[C@H](C)NC(=O)[C@H](Cc2ccc(O)c([N+](=O)[O-])c2)NC(=O)[C@H](CC(C)C)N(C)C(=O)[C@H](Cc2cn(C(C)(C)C3CO3)c3ccccc23)NC1=O (stereo partly drawn) [RUFI, rufomycin I]
- half-life (in vivo; female, BALB/c, mouse, in vivo, iv, plasma, mean n = 3, read-out: terminal half-life (converted)): 1 h
- clinical abnormalities (in vivo): no clinical abnormalities observed
- MIC (M. chelonae (ATCC 35752)): 4.24 µM (≈ 4.42 µg/mL)
- effect on proteolytic activity of ClpC1/P1/P2 (FITC-casein degradation) (ClpC1/P1/P2 complex): significantly decreased the proteolytic capabilities; also recorded: strongly inhibited
- MBC [1]: lacks this activity
- MIC ([1]; Mycobacterium tuberculosis): > 10 µM
- inhibition at 10 µM ([1]; Mycobacterium tuberculosis): 75%
- IC50 [2]: 13 µM
- activity against M. abscessus in BMDMs (CFU) [3]: as effective as clarithromycin
- MIC [4]: 0.073 µM (≈ 0.0761 µg/mL)
- IC50 [5]: 7.7 µM
- IC50 [6]: 12 µM
- IC50 [7]: 14 µM
- activity against M. tuberculosis in murine macrophages (CFU) [8]: even more potent than rifampin
- MBC (minimum bactericidal concentration) (M. tuberculosis): 0.40 µM (≈ 0.417 µg/mL)
- MBC (M. tuberculosis; Mycobacterium tuberculosis, read-out: MBC (minimum bactericidal concentration)): 0.4 µM (≈ 0.417 µg/mL)
- MIC [9]: 0.003 to 0.011 µM (≈ 0.00313 to 0.0115 µg/mL)
- MIC (M. marinum (ATCC 927)): < 0.02 µM
- MBC (M. abscessus): 1.2 µM (≈ 1.25 µg/mL)
- effect on ClpC1 ATPase activity (ClpC1): no significant effect; also recorded: mild and insignificant inhibitory effect
- MIC (M. kansasii (ATCC 12478)): 0.04 µM (≈ 0.0417 µg/mL)
